Assay [1] relates to LNCaP. The experiment in a line: Induction of cell death in quiescent human LNCAP cells assessed as proportion of live cells at 10 uM measured after 24 hrs by propidium iodide staining based flow cytometry analysis (reference value: 95.1%). It counts as functional. (Flow cytometry measures light scatter and fluorescence of single cells or particles in a stream.)
Assay [2] concerns LNCaP. The experiment in a line: Induction of apoptosis in quiescent human LNCAP cells assessed as decrease in caspase-9 protein expression at 8 to 12 uM measured after 24 hrs by Western blot analysis. It is filed as functional, cell-based. On the technique in general: A western blot detects proteins with antibodies after separation by electrophoresis.
Assay [3] relates to LNCaP. Description: Induction of apoptosis in quiescent human LNCAP cells assessed as chromatin condensation at periphery of nucleus at 5 to 12 uM measured after 24 hrs by Hoechst staining based fluorescent microscopy. It counts as functional, cell-based.
Assay [4] relates to LNCaP. The experiment in a line: Induction of apoptosis in quiescent human LNCAP cells assessed as increase in caspase-3 activity at 8 to 12 uM measured after 24 hrs. It is filed as functional, cell-based.
Assay [5] deals with LNCaP. The experiment in a line: Induction of apoptosis in quiescent human LNCAP cells assessed as nucleus fragmentation at 5 to 12 uM measured after 24 hrs by phase contrast microscopy. It is filed as functional, cell-based.
The test system of assay [6] is LNCaP. The experiment in a line: Induction of apoptosis in quiescent human LNCAP cells assessed as decrease in caspase-3 protein expression at 8 to 12 uM measured after 24 hrs by Western blot analysis. It counts as functional, cell-based.
Assay [7] relates to LNCaP. Description: Induction of cell death in quiescent human LNCAP cells assessed as proportion of live cells at 7.5 uM measured after 24 hrs by propidium iodide staining based flow cytometry analysis (reference value: 95.1%). It is filed as functional.
For assay [8], the system named is LNCaP. The experiment in a line: Induction of apoptosis in quiescent human LNCAP cells assessed as chromatin condensation at periphery of nucleus at 5 to 12 uM measured after 24 hrs by phase contrast microscopy. It counts as functional, cell-based.
For assay [9], the system named is LNCaP. Description: Induction of apoptosis in quiescent human LNCAP cells assessed as decrease in Bcl-2 protein expression at 8 to 12 uM measured after 24 hrs by Western blot analysis. It is filed as functional, cell-based.
The subject of assay [10] is LNCaP. The experiment in a line: Induction of cell death in quiescent human LNCAP cells assessed as proportion of dead cells at 5 uM measured after 24 hrs by propidium iodide staining based flow cytometry analysis (reference value: 4.90 %). It is filed as functional.
The subject of assay [11] is LNCaP. Description: Cytotoxicity against quiescent human LNCAP cells assessed as induction of cell death measured after 24 hrs by […] dye based fluorescence analysis. It is filed as functional.
In assay [12] the test system is LNCaP. Description: Induction of cell death in quiescent human LNCAP cells assessed as proportion of dead cells at 10 uM measured after 24 hrs by propidium iodide staining based flow cytometry analysis (reference value: 4.90 %). It counts as functional.
The test system of assay [13] is LNCaP. Description: Induction of cell death in quiescent human LNCAP cells assessed as proportion of live cells at 5 uM measured after 24 hrs by propidium iodide staining based flow cytometry analysis (reference value: 95.1%). It is filed as functional.
Assay [14] relates to LNCaP. Description: Induction of apoptosis in quiescent human LNCAP cells assessed as nucleus fragmentation at 5 to 12 uM measured after 24 hrs by Hoechst staining based fluorescent microscopy. It is filed as functional, cell-based.
The test system of assay [15] is LNCaP. The experiment in a line: Cytotoxicity against quiescent human LNCAP cells assessed as induction of cell death at 20 uM measured after 24 hrs by SYBR green dye based fluorescence analysis. It counts as functional.
In assay [16] the test system is LNCaP. The experiment in a line: Induction of cell death in quiescent human LNCAP cells assessed as proportion of dead cells at 7.5 uM measured after 24 hrs by propidium iodide staining based flow cytometry analysis (reference value: 4.90 %). It counts as functional.
The test system of assay [17] is LNCaP. The experiment in a line: Induction of cell death in quiescent human LNCAP cells assessed as proportion of live cells at 20 uM measured after 24 hrs by propidium iodide staining based flow cytometry analysis (reference value: 95.1%). It is filed as functional.
The test system of assay [18] is LNCaP. The experiment in a line: Induction of cell death in quiescent human LNCAP cells assessed as proportion of dead cells at 20 uM measured after 24 hrs by propidium iodide staining based flow cytometry analysis (reference value: 4.90 %). It is filed as functional.

The source made the active and inactive calls. The calls are words filed in the database; no cut-off is given here.

`COC(=O)[C@]1(O)C(=O)[C@](CC=C(C)C)(C/C=C(\C)CCC=C(C)C)c2c1oc1c(CC=C(C)C)c(O)cc(O)c1c2=O`: the Activity is 29.9% in [1]; 49.9% in assay [7]; 12.4% in [10]; “Dose-dependent effect” in assay [11]; 70.1% in [12]; 87.6% in assay [13]. Further, the Activity in assay [16] came out at 50.1%. The outcome in assay [2], in assay [3], in [4], in [5], in assay [6] and in assay [8] was Active. Further, the result in [9], in assay [14] and in assay [15] was Active.
In the case of `CC(C)=CCc1c(O)cc(O)c2c(=O)c3c(oc12)C(=O)[C@@]1(O)C(=O)[C@]3(CC=C(C)C)C[C@@H]2C(C)(C)CCC[C@]21C`, the outcome in assay [15] was Active.
Still for that read-out and setting: the entry for `COC(=O)c1oc2c(CC=C(C)C)c(O)cc(O)c2c(=O)c1C(CC=C(C)C)(CC=C(C)C)C(=O)O` is “Active”; for `CC(C)=CCC/C(C)=C/C[C@@]12C[C@H](C(C)(C)O)OC1=C(O)C(=O)c1oc3c4c(cc(O)c3c(=O)c12)OC(C)(C)C=C4` it is “Active”; for `CC(C)=CCCC(C)(O)[C@@H]1C[C@@]23CC=C(C)CO[C@]2(O1)C(=O)c1oc2c4c(cc(O)c2c(=O)c13)OC(C)(C)C=C4` (stereo partly specified) it is “Active”.
Same read-out and setting: under `CC(C)=CCCC(C)(O)[C@@H]1C[C@@]2(CC=C(C)C)C(=C(O)C(=O)c3oc4c5c(cc(O)c4c(=O)c32)OC(C)(C)C=C5)O1` (stereo partly specified) stands “Active”; under `COC(=O)C1(O)C(=O)C(CC=C(C)C)(CC=C(C)C)c2c1oc1c3c(cc(O)c1c2=O)OC(C)(C)C=C3` (stereo unspecified), “Active”.
As to `CC(=O)O[C@H]1C(=O)[C@@]2(C)[C@H]([C@H](OC(=O)c3ccccc3)[C@]3(O)C[C@H](OC(=O)[C@H](O)[C@@H](NC(=O)c4ccccc4)c4ccccc4)C(C)=C1C3(C)C)[C@]1(OC(C)=O)CO[C@@H]1C[C@@H]2O` [PACLITAXEL], the Activity in assay [17] is listed as 92.9%; in assay [18] it was 7.08%. The outcome in [15] was inactive.
Take `COC(=O)C12OC(=O)C(CC=C(C)C)(CC=C(C)C)C1C(=O)c1c(O)cc3c(c1O2)C=CC(C)(C)O3` (racemic): the result in assay [15] was Active.

The values above are taken from ChEMBL document CHEMBL4406818, “Xanthone derivatives from the leaves of Garcinia oligantha” (2019).
